Results reported in patent US4264576A, “Contraceptive methods and compositions” (Eli Lilly and Company, priority 1980, dated 1981).
One block for each compound: values may come before it.

How the values were obtained:
[1] = tested on: virgin dutch belted female rabbit; experiment: Antifertility effects in vivo by intravaginal administration; conditions: 1 ml of equal volumes Ky-jelly and 10 mg./ml. solution, before breeding, 6 animals
Description: Equal volumes of Ky-jelly® and either Ca^++ free Ringer's solution or a 10 mg./ml. solution of the compound to be tested in Ca^++ free Ringer's solution are well mixed. One milliliter of this is placed into the vagina of a virgin dutch belted female rabbit using a syringe. The female is then immediately bred to a fertile buck. The female is injected I.V. with 100 units of human chorionic gonadotrophin to assure a good ovulation rate.
After approximately 14 days the females are sacrificed by cervical dislocation and the genital system examined for the number of embryos.

[2] = tested on: Dutch Belted virgin rabbits; experiment: Antifertility effects in vivo by intrauterine administration; design: species or system rabbit; conditions: 40-mg dimethylpolysiloxane rubber rod, 10% W/W
Description: Dutch Belted virgin rabbits, each weighing 3-4 pounds, are randomly selected and anesthetized with sodium pentobarbital (50 μg./ml.) administered by IV drip. The uterus of each animal is exposed and a 40-mg. sample in the shape of a rod (3 mm. in diameter) of dimethylpolysiloxane rubber (as prepared in Example 3) containing 10% W/W of sodium sulfopropyl n-dodecanoate is sutured into the right uterine horn at a random location in between the cervix and the utero-tubal junction. The left horn is left untreated to serve as control. The rubber rod is placed into the uterine horn by passing a curved needle through it and through the uterine wall pulling the rod into the uterine lumen. The entry is closed by suturing. Animals (blank) are similarly treated using unmedicated dimethylpolysiloxane rubber to serve as a second group of controls. The animals are given 300,000 units of Duracillin® per day (in four doses) and are allowed to recover for 14 days. Each animal is bred to a male of proven fertility and is immediately given a dose (IV) of appropoximately 100 units of human chorionic gonadotropin (HCG) to facilitate ovulation. Fourteen days after breeding, the animal are sacrificed by cervical dislocation and the uterine horns are examined for implanted embryos. The number of embryos per uterine horn are recorded.

[3] = Drug release rate from dimethylpolysiloxane rubber compositions in calcium-free Ringers solution; type: physicochemical; conditions: footnote of Table II; Calc. on basis of hyaluronidase inhibition
Description: An appropriate sample of a dimethylpolysiloxane rubber composition in which is incorporated the test compound is placed in a suitable amount of calcium-free Ringers solution, and the sample and solution are incubated together at 37° C. for a period of time (e.g. 24 hours). […] The equivalent amount of test compound in the removed solution is calculated from standard inhibition curves in which hyaluronidase inhibition is plotted against concentration of the test compound. The calculated result are expressed as micrograms of test compound released per day.
The above test may be repeated for an extended period of time, for example, for 1 day to 360 days, or more, by adding fresh calcium-free Ringer's solution after each removal of the solution for assay.
The sample weight was 4 mg. and the amount of added solution was 1 ml.

cumulus oophorus = experiment: Removal of cumulus oophorus from ova by hyaluronidase, in vitro; type: cell-based, rabbit; conditions: 10 μl of 10 mg./ml. compound solution in 1 ml calcium-free Ringer's solution, 37° C.
Description: In the absence of sodium sulfopropyl dodecanoate, complete removal of the cumulus oophorus is observed.
Female rabbits are given 100 units of pregnant mares serum (PMS), IM, and 134 units of HCG, IV. After 13 hours the animals are sacrificed, and the ovaries are excised. The ovaries are submerged in calcium-free Ringer's solution containing 20% rabbit serum which had been heated to 55° C. for 20 minutes. Ova with cumulus intact are removed and placed in calcium-free Ringer's solution for incubation at 37° C. Hyaluronidase (10 μl.) of a 10 mg./ml. solution in calciumfree Ringer's solution is added to 20 ova in 1 ml. of the incubation medium. To 10 ova in the same medium is added 10 μl. of a solution of sodium sulfopropyl n-dodecanoate (10 mg./ml.) in calcium-free Ringer's solution. To 10 other ova in the same media is added 10 μl. of calcium-free Ringer's solution as control. The mixtures are incubated at 37° C., and the cumulus oophorus is examined at 15 minute intervals with an American Optical stereomicroscope. In the absence of sodium sulfopropyl n-dodecanoate, the cumulus oophorus is completely removed.

acrosin = acrosin (Homo sapiens, UniProt P10323); experiment: Acrosin inhibition in vitro; type: biochemical; conditions: statement in words
acrosin, sequence (P10323 20-421, species assumed): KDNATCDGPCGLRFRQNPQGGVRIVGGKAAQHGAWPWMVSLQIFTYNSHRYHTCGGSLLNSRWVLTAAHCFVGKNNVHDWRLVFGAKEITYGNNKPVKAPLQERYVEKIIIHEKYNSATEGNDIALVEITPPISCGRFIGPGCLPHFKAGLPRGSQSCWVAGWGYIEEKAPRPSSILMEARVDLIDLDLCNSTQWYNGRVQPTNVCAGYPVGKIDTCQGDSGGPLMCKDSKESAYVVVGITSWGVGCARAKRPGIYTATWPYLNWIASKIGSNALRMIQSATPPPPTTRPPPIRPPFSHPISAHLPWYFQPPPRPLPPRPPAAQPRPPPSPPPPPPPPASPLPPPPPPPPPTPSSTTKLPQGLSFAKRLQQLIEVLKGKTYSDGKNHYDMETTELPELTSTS

anti-acrosin activity (inhibition in vitro of the action of acrosin) (acrosin): anti-acrosin activity
Compound: CCCC/C=C/CCCCCCCC(=O)OCCCS(=O)(=O)O [trans- CH3 (CH2)3 CHCH(CH2) 7, n=3, sodium sulfopropyl myristelaidate]

anti-acrosin activity (inhibition in vitro of the action of acrosin) (acrosin): anti-acrosin activity
Compound: sodium sulfopropyl 15-methylheptadecanoate

anti-acrosin activity (inhibition in vitro of the action of acrosin) (acrosin): anti-acrosin activity
Compound: sodium sulfopropyl 16-methylheptadecanoate

Second part, the compound before the results:

Compound: CCCCCCCCCCCC(=O)OCCCS(=O)(=O)O.[Na] [CH3 (CH2)10, n=3, sodium sulfopropyl dodecanoate]
Avg. No. of Embryos per animal [1]: 0
No. of embryos ([1]; approximately 14 days): 0
Total No. of embryos ([2]; in right uterine horn, 11 horns, 14 days after breeding): 1
[drawing 14] (number of embryos per uterine horn) ([2]; in uterine horn, p < .001 compared to untreated and to blank): 0.09
Release rate from dimethylpolysiloxane, in vitro [3]: 1 to 3 mg/day
state of the cumulus oophorus of rabbit ova incubated with hyaluronidase (cumulus oophorus): the cumulus oophorus remain substantially intact
state of the cumulus oophorus of rabbit ova incubated with hyaluronidase (cumulus oophorus; listed as sodium sulfopropyl n-dodecanoate): the cumulus remains substantially intact

Compound: CCCC/C=C\CCCCCCCC(=O)OCCCS(=O)(=O)O.[Na] [cis- CH3 (CH2)3 CHCH(CH2)7, n=3, sodium sulfopropyl myristoleate]
anti-acrosin activity (inhibition in vitro of the action of acrosin) (acrosin): anti-acrosin activity
